Data reported in patent US20260232666A1, “COMPOSITIONS AND METHODS FOR INHIBITION OF RAS” (TheRas, Inc., priority 2023, published 2026).

What was measured:
pERK in NCI-H358 cells = test: Cell-based pERK HTRF assay (pERK inhibition in H358 cells); settings: Homo sapiens, NCI-H358, 0.5 h, 30 min incubation
Description: Biological Example 3: Cell-Based pERK HTRF Assay
pERK assays (Perkin Elmer) were used to determine the effectiveness of compounds of the present disclosure in disrupting KRAS G12C protein/effector signaling in cells.
On Day 1, cells (NCI-H358) were seeded into 96-well plates at 4×10^4 cells/well in complete growth media (RPMI, 10% FBS).
On Day 2, cells were treated with compounds at 0.25% DMSO. The source plate was created with compounds diluted in media at 5-fold the final assay concentration. The compounds were run in a 9-point concentration curve starting at 75 μM, with a 3-fold dilution between concentrations. 20 μL was transferred onto the cell plates (final volume in wells was 100 μL). Plates were harvested after 30 min incubation by aspirating media and adding kit-supplied 1× supplemented lysis buffer to all wells (75 μl per well). Plates were then placed on a plate shaker and incubated at 850 rpm for an additional 30 min.
Antibody mixture solution was prepared by diluting aliquoted d2 and Eu Cryptate antibodies 1:20 in kit supplied detection buffer, then mixed the diluted antibodies solutions (1:1 v:v). 4 μL of this solution was then added to a 384-well detection plate (Perkin Elmer; 6008230).
Samples were homogenized by pipetting up and down and then transferred (16 μL of cell lysates) from the 96-well cell culture plate to two wells of the HTRF 384-well detection plate containing the antibody solution. Plates were centrifuged (524 g for […]) and allowed to incubate between 4 and 24 h at room temperature. Maximum signal is reached after 4 h incubation time and remains stable over a period of 24 hours. Therefore, readings can be made between 4 and 24 h of incubation. Plates were centrifuged again (524 g for 1 min), and analyzed on the En Vision plate reader using the following settings: Excitation 320 nm, Bandwidth 75 nm; Emission 615 nm, Bandwidth 85 nm; Gain 100%; Flashes 100; Lag 60 μs.
The percent of modification of GppNHp, GTP, or GDP loaded KRAS G12C by MALDI-TOF MS, biochemical Raf1 RBD-KRAS G12C-GppNHp disruption assay IC50, and pERK inhibition IC50 of selected compounds described herein are shown in Table 4. For percent of modification at 15 minutes (MALDI-TOF MS) of GppNHp, GTP, or GDP loaded KRAS G12C: A: percent of modification ≥70%; B: 50≤percent of modification <70%; C: 10%≤percent of modification <50%; D: percent of modification <10%. […] For pERK inhibition in H358 cell assay: A: IC50≤0.1 μM; B: 0.1 μM<IC50≤1 μM; C: IC50>1 μM. Blanks in the table represent that compound was not tested in the indicated assay.

[1] = target: T1, GppNHp-loaded KRAS4b (amino acids 1-169) G12C/C118S protein (Homo sapiens, UniProt P01116, C118S/G12C); test: Covalent cysteine 12 modification by MALDI-TOF MS, GppNHp-loaded KRAS G12C; assay type: binding; settings: 15 minutes reaction time point
T1 construct: KRAS4b (amino acids 1-169) G12C/C118S protein; made in house
Description: (§1) Biological Example 1: Covalent Cysteine 12 Modification Analysis Using Matrix Assisted Laser Desorption Ionization-Time of Flight Mass Spectrometry (MALDI-TOF MS)
(§2) MALDI-TOF MS analysis was performed using 1 μM protein (KRAS G12C), and 1:2.5 protein to compound ratio.
(§3) Reaction: 1 μM of GppNHp, GTP, or GDP-loaded KRAS4b (amino acids 1-169) G12C/C118S protein (produced in-house by Protein Expression Laboratory, FNLCR/Leidos Biomed) in 20 mM 4-(2-hydroxyethyl)-1-piperazineethanesulfonic acid (HEPES) buffer containing 150 mM NaCl, 1 mM MgCl2, pH 7.3 was prepared freshly before assay. Twelve-μL aliquots of protein were dispensed onto low volume 384-well plate, then 30 nL of tested compounds from 1 mM DMSO stocks were added to appropriate wells using ECHO 555 acoustic liquid handler (Labcyte Inc.). For each reaction/assay, three blanks were prepared by mixing 12 μL of protein solution with 30 nL DMSO. The contents of the wells were carefully mixed by aspiration, and then each plate was sealed with an adhesive cover, centrifuged at 2000 g for 1 minute, and kept in the dark at room temperature until 5 min, 15 min, 30 min, 2 h, or 6 h collections.
(§4) Target pretreatment: Before each assay MALDI target (Bruker MPT 384 ground steel BC) was pre-treated by pipetting on each spot 0.75 μL of saturated sinapinic acid in acetonitrile (ACN).
(§5) Sample preparation: At collection time point, 2 μL of reaction mixtures were pipetted out into 15 μL MALDI matrix solution (saturated solution of sinapinic acid in 1:1 ACN:water solution containing 0.75% trifluoroacetic acid (TFA)) deposited on 384 well polypropylene plate. Resulting solution was mixed by aspiration, centrifuged at 2000 g for 1 minute, then 1.5 μL aliquots were dispensed on pre-treated MALDI target using Beckman Coulter Biomek FXP 96/384-Span-8 Laboratory Automation Workstation. Finally, the MALDI target was dried under mild vacuum to produce spots with fine crystalline structure.
(§6) Measurements: MALDI-TOF measurements were performed on a Bruker Daltonics rapiflex Tissuetyper TOF-TOF mass spectrometer using linear mode and mass range from 18.6 to 21.6 kDa. Detector gain was set to 3.3×(483 V), sample rate to 5 GS/s, real time smoothing to medium (175 MHz), laser smart beam pattern was set to: “MS Thin Layer M5”, and the laser frequency was 10000 Hz. Spectra were automatically collected using custom AutoXecute method. Laser power was auto adjusted using fuzzy control. The peak selection range was set to be between 19000 and 21500 Da. Peak evaluation uses half width parameter set to be smaller than 40 Da for processed spectrograms (centroid peak detection; smoothed by SavitzkyGolay algorithm using 7 m/z width and 2 cycles; baseline was subtracted using median algorithm with flatness 1 and median level 0.01). Fuzzy control used Proteins/Oligonucleotides protocol with minimum half width 1/10 times above threshold. Up to 40000 satisfactory shots were collected in 10000 shot steps. Dynamic termination was implemented to finish data collection when peak signal/noise ratio was reaching value of 50.
(§7) Spectra processing: Spectra were smoothed by SavitzkyGolay algorithm using 7 m/z width and three cycles. Centroid peak detection algorithm was used with signal to noise threshold set to 6, relative intensity threshold 4%, peak width 10 m/z and median baseline subtraction using flatness of 1 and median level of 0.01. Peak intensity and area under the peak were evaluated and recorded for all peaks between 19,300 Da and 21,550 Da.
(§8) Calculation of percent modification: Percent modification was calculated as a ratio of peak height for protein modified by compound to sum of peak height of remaining protein plus peak height for protein modified by compound. If multiple modifications were observed each was calculated as a ratio of peak height for given modification versus sum of peak heights for all observed protein species. Data reported in Table 4 are from 15 minutes reaction time point. […]

[2] = target: T2, GDP-loaded KRAS4b (amino acids 1-169) G12C/C118S protein (Homo sapiens, UniProt P01116, C118S/G12C); test: Covalent cysteine 12 modification by MALDI-TOF MS, GDP-loaded KRAS G12C; assay type: binding; settings: 15 minutes reaction time point
T2 construct: KRAS4b (amino acids 1-169) G12C/C118S protein; made in house
Description: as §1, §2, §3, §4, §5, §6, §7, §8

[3] = target: T3, GTP-loaded KRAS4b (amino acids 1-169) G12C/C118S protein (Homo sapiens, UniProt P01116, C118S/G12C); test: Covalent cysteine 12 modification by MALDI-TOF MS, GTP-loaded KRAS G12C; assay type: binding; settings: 15 minutes reaction time point
T3 construct: KRAS4b (amino acids 1-169) G12C/C118S protein; made in house
Description: as §1, §2, §3, §4, §5, §6, §7, §8

Compound | IC50 (pERK in NCI-H358 cells) | GppNHp-KRAS G12C percent of modification [1] | GDP-KRAS G12C percent of modification [2] | GTP-KRAS G12C percent of modification [3]
C=CC(=O)N1CC[C@@H](N(C)c2nc(O[C@@H](C)[C@@H]3C(=C)CCN3C)nc3c(F)c(-c4ccc(F)c5sc(N)c(C#N)c45)c(C(F)(F)F)cc23)[C@H]1C [Compound 203] | < 100 nM | A (percent of modification ≥70%) | A (percent of modification ≥70%) | A (percent of modification ≥70%)
C=CC(=O)N1CC[C@@H](N(C)c2nc(O[C@@H](C)[C@@H]3C(=C(F)F)CCN3C)nc3c(F)c(-c4ccc(F)c5sc(N)c(C#N)c45)c(C(F)(F)F)cc23)[C@H]1C [Compound 207] | < 100 nM | B (50≤percent of modification <70%) | B (50≤percent of modification <70%) | C (10%≤percent of modification <50%)
C=CC(=O)N1CC[C@@H](N(C)c2nc(OC[C@@H]3C(=C(F)F)CCN3C)nc3c(F)c(-c4ccc(F)c5sc(N)c(C#N)c45)c(C(F)(F)F)cc23)[C@H]1C [Compound 199] | < 100 nM | C (10%≤percent of modification <50%) | C (10%≤percent of modification <50%) | C (10%≤percent of modification <50%)
CCN(c1nc(OC[C@@]23CCCN2C[C@H](F)C3)nc2c(F)c(-c3ccc(F)c4sc(N)c(C#N)c34)c(C(F)(F)F)cc12)[C@H]1CCN(C(=O)[C@@H](F)Cl)C1 [Compound 186] | < 100 nM | C (10%≤percent of modification <50%) | C (10%≤percent of modification <50%) | B (50≤percent of modification <70%)
C=CC(=O)N1CC[C@@H](N(C)c2nc(OC[C@@H]3CC(=C(F)F)CN3C)nc3c(F)c(-c4ccc(F)c5sc(N)c(C#N)c45)c(Cl)cc23)[C@H]1C [Compound 202] | 100 to 1000 nM | B (50≤percent of modification <70%) | B (50≤percent of modification <70%) | C (10%≤percent of modification <50%)
CCN(c1nc(OC[C@@H]2C[C@@H](OC)CN2C)nc2c(F)c(-c3ccc(F)c4sc(N)c(C#N)c34)c(C(F)(F)F)cc12)[C@@H]1CCN(C(=O)[C@@H](F)Cl)[C@@H]1C [Compound 178] | 100 to 1000 nM | D (percent of modification <10%) | D (percent of modification <10%) | D (percent of modification <10%)
C[C@@H]1[C@H](N(C)c2nc(OC[C@@]34CCCN3C[C@H](F)C4)nc3c(F)c(-c4ccc(F)c5sc(N)c(C#N)c45)c(C(F)(F)F)cc23)CCN1C(=O)/C=C/c1nc(C(C)(F)F)no1 [Compound 188, 2-amino-4-(4-(((2R,3R)-1-((E)-3-(3-(1,1-difluoroethyl)-1,2,4-oxadiazol-5-yl)acryloyl)-2-methylpyrrolidin-3-yl)(methyl)amino)-8-fluoro-2-(((2R,7aS)-2-fluorotetrahydro-1H-pyrrolizin-7a(5H)-yl)methoxy)-6-(trifluoromethyl)quinazolin-7-yl)-7-fluorobenzo[b]thiophene-3-carbonitrile] | < 100 nM | B (50≤percent of modification <70%) | B (50≤percent of modification <70%) | C (10%≤percent of modification <50%)
C=CC(=O)N1CCC(N(C)c2nc(OC(C)C3CC(=C(F)F)CN3C)nc3c(F)c(-c4ccc(F)c5sc(N)c(C#N)c45)c(Cl)cc23)C1C (stereo not drawn) [Compound 206] | 100 to 1000 nM | A (percent of modification ≥70%) | A (percent of modification ≥70%) | B (50≤percent of modification <70%)
C=CC(=O)N1CC[C@@H](N(C)c2nc(O[C@@H](C)[C@@H]3[C@@H](OC)CCN3C)nc3c(F)c(-c4ccc(F)c5sc(N)c(C#N)c45)c(Cl)cc23)[C@H]1C [Compound 195] | < 100 nM | A (percent of modification ≥70%) | A (percent of modification ≥70%) | A (percent of modification ≥70%)
CCN(c1nc(OC[C@@]23CCCN2C[C@H](F)C3)nc2c(F)c(-c3ccc(F)c4sc(N)c(C#N)c34)c(C(F)(F)F)cc12)[C@H]1CCN(C(=O)[C@H](F)Cl)C1 [Compound 187] | < 100 nM | B (50≤percent of modification <70%) | B (50≤percent of modification <70%) | B (50≤percent of modification <70%)
C=CC(=O)N1CC[C@@H](N(C)c2nc(O[C@@H](C)[C@@H]3CC(=C(F)F)CN3C)nc3c(F)c(-c4ccc(F)c5sc(N)c(C#N)c45)c(C(F)(F)F)cc23)[C@H]1C [Compound 204] | 100 to 1000 nM | C (10%≤percent of modification <50%) | C (10%≤percent of modification <50%) | C (10%≤percent of modification <50%)
C=CC(=O)N1CC[C@@H](N(C)c2nc(OC[C@@H]3[C@@H](OC)CCN3C)nc3c(F)c(-c4ccc(F)c5sc(N)c(C#N)c45)c(Cl)cc23)[C@H]1C [Compound 196] | < 100 nM | A (percent of modification ≥70%) | A (percent of modification ≥70%) | A (percent of modification ≥70%)
